Key:
Assay type in all cases: in vivo
Wheat [1] = test: Post-emergence herbicidal activity (Example 32); parameters: key: 0-3 scale: 0 = 0-25% damage, 3 = 75-99% kill, 3+ = 100% kill; details: 3 weeks after spraying
In short: (§1)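 Glasshouse-grown seedlings reaching roughly 10–12.5 cm height were sprayed with water-diluted formulations, either toluene-based emulsifiable concentrates or ball-milled suspensions. After a further 3 weeks, injury was scored by eye against untreated plants: 0 = 0–25% damage, 3 = 75–99% kill, 3+ = complete kill.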

Ipomea [2] = test: Post-emergence herbicidal activity (Example 32); details: 5 kg/ha, 3 weeks after spraying
In short: as §1

Japanese millet [3] = test: Post-emergence herbicidal activity (Example 32); details: 3 weeks after spraying
In short: as §1

Mustard [4] = test: Post-emergence herbicidal activity (Example 32); details: 3 weeks after spraying
In short: as §1

Ryegrass [5] = test: Post-emergence herbicidal activity (Example 32); details: 3 weeks after spraying
In short: as §1

Sunflower [6] = test: Post-emergence herbicidal activity (Example 32); details: 3 weeks after spraying
In short: as §1

Wild Oats [7] = test: Post-emergence herbicidal activity (Example 32); details: 3 weeks after spraying
In short: as §1

Maize [8] = test: Pre-emergence herbicidal test, fibre trays (Example 33); parameters: key: 0 = 0-20% damage, 5 = complete kill, vs untreated control; details: 2.0 kg/ha, after 21 days
Procedure: (§2) The compounds were formulated for test by mixing an appropriate amount with 5 ml of an emulsion prepared by diluting 160 ml of a solution containing 21.S g per litre of "Span" 80 and 78.2 g per litre of "Tween" 20 in methylcyclohexanone to 500 ml with water. "Span" 80 is a Trade Mark for a surface-active agent comprising sorbitan monolaurate. "Tween" 20 is a Trade Mark for a surface-active agent comprising a condensate of sorbitan monolaurate with 20 molar proportions of ethylene oxide. Each 5 ml emulsion containing a test compound was'then diluted to 40 ml with water and sprayed on to young pot plants (post-emergence test) of the species named in Table 5 below. Damage to test plants was assessed after 14 days on a scale of 0 to 5 where 0 is 0 to 20% damage and 5 is complete kill. In a test for pre-emergence herbicidal activity, seeds of the test plants were sown in a shallow slit formed in the surface of soil in fibre trays. The surface was then levelled and sprayed, and fresh soil then spread thinly over the sprayed surface. Assessment of herbicidal damage was carried out after 21 days using the same scale of 0 to 5 as the post-emergence test. In both cases the degree of herbicidal damage was assessed by comparison with untreated control plants. A dash (-) means that no experiment was carried out.

Rice [9] = test: as above; details: 2.0 kg/ha, after 21 days
Procedure: as §2

Amaranthus retroflexus [10] = test: as above; details: 2.0 kg/ha, after 21 days
Procedure: as §2

Cotton [11] = test: as above; details: 2.0 kg/ha, after 21 days
Procedure: as §2

Ipomea purpurea [12] = test: as above; details: 2.0 kg/ha, after 21 days
Procedure: as §2

Rape [13] = test: as above; details: 2.0 kg/ha, after 21 days
Procedure: as §2

Senecio vulgaris [14] = test: as above; details: 2.0 kg/ha, after 21 days
Procedure: as §2

Soy bean [15] = test: as above; details: 2.0 kg/ha, after 21 days
Procedure: as §2

Sugar beet [16] = test: as above; details: 2.0 kg/ha, after 21 days
Procedure: as §2

Winter wheat [17] = test: as above; details: 2.0 kg/ha, after 21 days
Procedure: as §2

Maize [18] = test: Post-emergence herbicidal test, young pot plants (Example 33); details: 2.0 kg/ha, after 14 days
Procedure: as §2

Rice [19] = test: as above; details: 2.0 kg/ha, after 14 days
Procedure: as §2

Winter wheat [20] = test: as above; parameters: key: 0 = 0-20% damage, 5 = complete kill, vs untreated control; details: 2.0 kg/ha, after 14 days
Procedure: as §2

Cotton [21] = test: as above; details: 2.0 kg/ha, after 14 days
Procedure: as §2

Ipomea purpurea [22] = test: as above; details: 2.0 kg/ha, after 14 days
Procedure: as §2

Rape [23] = test: as above; details: 2.0 kg/ha, after 14 days
Procedure: as §2

Senecio vulgaris [24] = test: as above; details: 2.0 kg/ha, after 14 days
Procedure: as §2

Soy bean [25] = test: as above; details: 2.0 kg/ha, after 14 days
Procedure: as §2

Sugar beet [26] = test: as above; details: 2.0 kg/ha, after 14 days
Procedure: as §2

Chenopodium album [27] = test: Pre-emergence herbicidal test, fibre trays (Example 33); details: 2.0 kg/ha, after 21 days
Procedure: as §2

Polygonum aviculare [28] = test: as above; details: 2.0 kg/ha, after 21 days
Procedure: as §2

Amaranthus retroflexus [29] = test: Post-emergence herbicidal test, young pot plants (Example 33); details: 2.0 kg/ha, after 14 days
Procedure: as §2

Chenopodium album [30] = test: as above; details: 2.0 kg/ha, after 14 days
Procedure: as §2

Polygonum aviculare [31] = test: as above; details: 2.0 kg/ha, after 14 days
Procedure: as §2

Ryegrass [32] = test: Pre-emergence herbicidal activity (Example 31); parameters: key: 0-3 scale: 0 = 0-25% damage, 3 = 75-99% kill, 3+ = 100% kill; details: 10 kg/ha, after three weeks
In short: (§3)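 Visual damage score at three weeks: 0 = 0–25% damage, 3 = 75–99% kill, 3+ = 100% kill. Soil boxes with seeds sown 2 cm deep were sprayed before emergence with water-diluted emulsifiable concentrate or suspension, then grown in a glasshouse alongside unsprayed controls.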

Wheat [33] = test: Pre-emergence herbicidal activity (Example 31); parameters: key: 0-3 scale: 0 = 0-25% damage, 3 = 75-99% kill, 3+ = 100% kill; details: 10 kg/ha, after three weeks
In short: as §3

Ipomea [34] = test: Pre-emergence herbicidal activity (Example 31); details: 10 kg/ha, after three weeks
In short: as §3

Japanese millet [35] = test: Pre-emergence herbicidal activity (Example 31); details: 10 kg/ha, after three weeks
In short: as §3

Mustard [36] = test: Pre-emergence herbicidal activity (Example 31); details: 10 kg/ha, after three weeks
In short: as §3

Sunflower [37] = test: Pre-emergence herbicidal activity (Example 31); details: 10 kg/ha, after three weeks
In short: as §3

Wild Oats [38] = test: Pre-emergence herbicidal activity (Example 31); details: 10 kg/ha, after three weeks
In short: as §3

COC(=O)C(C)Oc1ccc(N(C)c2ccc([N+](=O)[O-])cc2[N+](=O)[O-])cc1 (stereo not shown) [Compound 18]
damage to plants, Wh (Wheat [1]; 5 kg/ha): 2 | damage to plants, Ip (Ipomea [2]): 0 (0 represents 0 to 25% damage) | damage to plants, Jm (Japanese millet [3]; 5 kg/ha): 3+ (3+ represents 100% kill) | damage to plants, Ms (Mustard [4]; 5 kg/ha): 0 (0 represents 0 to 25% damage) | damage to plants, Rg (Ryegrass [5]; 5 kg/ha): 3+ (3+ represents 100% kill) | damage to plants, Sf (Sunflower [6]; 5 kg/ha): 0 (0 represents 0 to 25% damage) | damage to plants, Ot (Wild Oats [7]; 5 kg/ha): 3 (3 represents 75 to 99% kill) | herbicidal damage, Mz (Maize [8]): 1 | herbicidal damage, Rc (Rice [9]): 1 | herbicidal damage, Am (Amaranthus retroflexus [10]): 0 (0 is 0 to 20% damage) | herbicidal damage, Ct (Cotton [11]): 0 (0 is 0 to 20% damage) | herbicidal damage, Ip (Ipomea purpurea [12]): 0 (0 is 0 to 20% damage) | herbicidal damage, Rp (Rape [13]): 1 | herbicidal damage, Sn (Senecio vulgaris [14]): 0 (0 is 0 to 20% damage) | herbicidal damage, Sy (Soy bean [15]): 0 (0 is 0 to 20% damage) | herbicidal damage, Sb (Sugar beet [16]): 0 (0 is 0 to 20% damage) | herbicidal damage, Ww (Winter wheat [17]): 0 (0 is 0 to 20% damage) | damage to test plants, Mz (Maize [18]): 2 | damage to test plants, Rc (Rice [19]): 0 (0 is 0 to 20% damage) | damage to test plants, Ww (Winter wheat [20]): 0 (0 is 0 to 20% damage) | damage to test plants, Ct (Cotton [21]): 0 (0 is 0 to 20% damage) | damage to test plants, Ip (Ipomea purpurea [22]): 0 (0 is 0 to 20% damage) | damage to test plants, Rp (Rape [23]): 0 (0 is 0 to 20% damage) | damage to test plants, Sn (Senecio vulgaris [24]): 0 (0 is 0 to 20% damage) | damage to test plants, Sy (Soy bean [25]): 0 (0 is 0 to 20% damage) | damage to test plants, Sb (Sugar beet [26]): 1

COC(=O)C(C)Oc1ccc(Nc2ccc(C(F)(F)F)cc2[N+](=O)[O-])cc1Cl (stereo not shown) [Compound 116]
herbicidal damage, Mz (Maize [8]): 3 | herbicidal damage, Rc (Rice [9]): 4 | herbicidal damage, Am (Amaranthus retroflexus [10]): 0 (0 is 0 to 20% damage) | herbicidal damage, Ca (Chenopodium album [27]): 0 (0 is 0 to 20% damage) | herbicidal damage, Ct (Cotton [11]): 0 (0 is 0 to 20% damage) | herbicidal damage, Ip (Ipomea purpurea [12]): 0 (0 is 0 to 20% damage) | herbicidal damage, Pi (Polygonum aviculare [28]): 0 (0 is 0 to 20% damage) | herbicidal damage, Rp (Rape [13]): 0 (0 is 0 to 20% damage) | herbicidal damage, Sn (Senecio vulgaris [14]): 0 (0 is 0 to 20% damage) | herbicidal damage, Sy (Soy bean [15]): 0 (0 is 0 to 20% damage) | herbicidal damage, Sb (Sugar beet [16]): 0 (0 is 0 to 20% damage) | herbicidal damage, Ww (Winter wheat [17]): 4 | damage to test plants, Mz (Maize [18]): 4 | damage to test plants, Rc (Rice [19]): 4 | damage to test plants, Ww (Winter wheat [20]): 4 | damage to test plants, Am (Amaranthus retroflexus [29]): 0 (0 is 0 to 20% damage) | damage to test plants, Ca (Chenopodium album [30]): 0 (0 is 0 to 20% damage) | damage to test plants, Ct (Cotton [21]): 0 (0 is 0 to 20% damage) | damage to test plants, Ip (Ipomea purpurea [22]): 0 (0 is 0 to 20% damage) | damage to test plants, Pi (Polygonum aviculare [31]): 0 (0 is 0 to 20% damage) | damage to test plants, Rp (Rape [23]): 0 (0 is 0 to 20% damage) | damage to test plants, Sy (Soy bean [25]): 0 (0 is 0 to 20% damage) | damage to test plants, Sb (Sugar beet [26]): 3

COC(=O)C(C)Oc1ccc(Nc2ccc([N+](=O)[O-])cc2[N+](=O)[O-])cc1 (stereo not shown) [Compound 15]
damage to plants, Rg (Ryegrass [32]): 3 (3 represents 75 to 99% kill) | damage to plants, Wh (Wheat [33]): 0 (0 represents from 0 to 25% damage) | damage to plants, Ip (Ipomea [34]): 0 (0 represents from 0 to 25% damage) | damage to plants, Jm (Japanese millet [35]): 3 (3 represents 75 to 99% kill) | damage to plants, Ms (Mustard [36]): 0 (0 represents from 0 to 25% damage) | damage to plants, Sf (Sunflower [37]): 0 (0 represents from 0 to 25% damage) | damage to plants, Ot (Wild Oats [38]): 1 | damage to plants, Wh (Wheat [1]; 1 kg/ha): 0 (0 represents 0 to 25% damage) | damage to plants, Wh (Wheat [1]; 5 kg/ha): 2 | damage to plants, Wh (Wheat [1]; 10 kg/ha): 2 | damage to plants, Jm (Japanese millet [3]; 1 kg/ha): 3 (3 represents 75 to 99% kill) | damage to plants, Jm (Japanese millet [3]; 5 kg/ha): 3+ (3+ represents 100% kill) | damage to plants, Jm (Japanese millet [3]; 10 kg/ha): 3+ (3+ represents 100% kill) | damage to plants, Ms (Mustard [4]; 1 kg/ha): 1 | damage to plants, Rg (Ryegrass [5]; 1 kg/ha): 1 | damage to plants, Rg (Ryegrass [5]; 5 kg/ha): 3+ (3+ represents 100% kill) | damage to plants, Rg (Ryegrass [5]; 10 kg/ha): 3+ (3+ represents 100% kill) | damage to plants, Sf (Sunflower [6]; 1 kg/ha): 0 (0 represents 0 to 25% damage) | damage to plants, Sf (Sunflower [6]; 5 kg/ha): 0 (0 represents 0 to 25% damage) | damage to plants, Sf (Sunflower [6]; 10 kg/ha): 0 (0 represents 0 to 25% damage) | damage to plants, Ot (Wild Oats [7]; 10 kg/ha): 2 | herbicidal damage, Mz (Maize [8]): 2 | herbicidal damage, Rc (Rice [9]): 0 (0 is 0 to 20% damage) | herbicidal damage, Ct (Cotton [11]): 0 (0 is 0 to 20% damage) | herbicidal damage, Ip (Ipomea purpurea [12]): 0 (0 is 0 to 20% damage) | herbicidal damage, Rp (Rape [13]): 0 (0 is 0 to 20% damage) | herbicidal damage, Sn (Senecio vulgaris [14]): 0 (0 is 0 to 20% damage) | herbicidal damage, Sy (Soy bean [15]): 1 | herbicidal damage, Sb (Sugar beet [16]): 0 (0 is 0 to 20% damage) | herbicidal damage, Ww (Winter wheat [17]): 0 (0 is 0 to 20% damage) | damage to test plants, Mz (Maize [18]): 4 | damage to test plants, Rc (Rice [19]): 2 | damage to test plants, Ww (Winter wheat [20]): 2 | damage to test plants, Am (Amaranthus retroflexus [29]): 2 | damage to test plants, Ca (Chenopodium album [30]): 1 | damage to test plants, Ct (Cotton [21]): 2 | damage to test plants, Ip (Ipomea purpurea [22]): 0 (0 is 0 to 20% damage) | damage to test plants, Pi (Polygonum aviculare [31]): 0 (0 is 0 to 20% damage) | damage to test plants, Rp (Rape [23]): 2 | damage to test plants, Sn (Senecio vulgaris [24]): 0 (0 is 0 to 20% damage) | damage to test plants, Sy (Soy bean [25]): 2 | damage to test plants, Sb (Sugar beet [26]): 0 (0 is 0 to 20% damage)

From patent publication EP0013144A1, “Substituted diphenylamine derivatives, compositions and herbicidal uses thereof, and processes for their preparation” (ICI AUSTRALIA LIMITED, priority 1978, dated 1980)
